Test results as given in patent US12492188B2, “1H-benzo[D]imidazole derivatives as TLR9 inhibitors for the treatment of fibrosis” (BRISTOL-MYERS SQUIBB COMPANY, priority 2020, dated 2025).
Where two headings read alike, the source gives them in different places.

Assays:
Format in all cases: cell-based
[1] = molecular target: T1, human TLR9 (Homo sapiens, UniProt Q9NR96); experiment: TLR9 inhibition reporter assay (HEK-Blue cells, secreted embryonic alkaline phosphatase reporter); conditions: HEK-Blue cells overexpressing human TLR9, stimulated with ODN2006 5 nM
T1 construct: host or cells: HEK-Blue cells (HEK293-derived reporter line)
T1 sequence (Q9NR96 26-1032): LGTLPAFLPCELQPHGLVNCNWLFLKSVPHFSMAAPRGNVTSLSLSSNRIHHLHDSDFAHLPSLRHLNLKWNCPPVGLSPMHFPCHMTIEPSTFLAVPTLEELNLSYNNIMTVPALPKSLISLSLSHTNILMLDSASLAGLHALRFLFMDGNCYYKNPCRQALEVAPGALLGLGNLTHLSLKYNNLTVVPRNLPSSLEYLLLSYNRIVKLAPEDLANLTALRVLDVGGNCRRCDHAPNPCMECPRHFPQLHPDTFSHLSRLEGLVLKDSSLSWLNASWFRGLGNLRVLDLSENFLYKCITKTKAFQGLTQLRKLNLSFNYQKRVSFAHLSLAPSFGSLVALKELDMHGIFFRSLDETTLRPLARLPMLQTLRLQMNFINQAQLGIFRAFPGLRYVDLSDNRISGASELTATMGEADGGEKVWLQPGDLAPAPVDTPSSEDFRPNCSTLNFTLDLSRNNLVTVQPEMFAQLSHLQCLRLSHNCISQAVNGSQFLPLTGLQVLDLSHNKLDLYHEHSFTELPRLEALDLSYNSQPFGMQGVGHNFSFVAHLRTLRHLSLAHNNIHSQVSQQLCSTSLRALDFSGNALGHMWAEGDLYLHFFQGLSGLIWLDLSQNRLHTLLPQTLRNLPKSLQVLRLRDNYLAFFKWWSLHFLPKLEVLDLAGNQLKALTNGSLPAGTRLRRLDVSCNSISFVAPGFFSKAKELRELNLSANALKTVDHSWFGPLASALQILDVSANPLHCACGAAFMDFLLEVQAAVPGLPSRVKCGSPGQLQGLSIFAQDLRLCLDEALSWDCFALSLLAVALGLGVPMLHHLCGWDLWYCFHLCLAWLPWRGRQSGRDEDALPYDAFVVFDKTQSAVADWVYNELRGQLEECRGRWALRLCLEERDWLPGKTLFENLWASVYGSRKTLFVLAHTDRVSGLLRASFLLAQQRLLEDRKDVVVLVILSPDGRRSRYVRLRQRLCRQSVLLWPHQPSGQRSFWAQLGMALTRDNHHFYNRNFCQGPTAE
Outline: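 HEK-Blue cells overexpressing the respective receptor, with an NF-κB/AP-1-driven SEAP reporter, were pre-treated with compound (0.05 nM–50 μM) for 30 min at room temperature. Stimulation used gardiquimod 7.5 μM (TLR7), R848 15.9 μM (TLR8) or ODN2006 5 nM (TLR9); SEAP was read after 22 h at 37 °C as percent inhibition.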

[2] = molecular target: T2, human TLR8 (Homo sapiens, UniProt Q9NR97); experiment: TLR8 inhibition reporter assay (HEK-Blue cells, secreted embryonic alkaline phosphatase reporter); conditions: HEK-Blue cells overexpressing human TLR8, stimulated with R848 15.9 μM; read-out: TLR 8 IC50
T2 construct: host or cells: HEK-Blue cells (HEK293-derived reporter line)
T2 sequence (Q9NR97 27-1041): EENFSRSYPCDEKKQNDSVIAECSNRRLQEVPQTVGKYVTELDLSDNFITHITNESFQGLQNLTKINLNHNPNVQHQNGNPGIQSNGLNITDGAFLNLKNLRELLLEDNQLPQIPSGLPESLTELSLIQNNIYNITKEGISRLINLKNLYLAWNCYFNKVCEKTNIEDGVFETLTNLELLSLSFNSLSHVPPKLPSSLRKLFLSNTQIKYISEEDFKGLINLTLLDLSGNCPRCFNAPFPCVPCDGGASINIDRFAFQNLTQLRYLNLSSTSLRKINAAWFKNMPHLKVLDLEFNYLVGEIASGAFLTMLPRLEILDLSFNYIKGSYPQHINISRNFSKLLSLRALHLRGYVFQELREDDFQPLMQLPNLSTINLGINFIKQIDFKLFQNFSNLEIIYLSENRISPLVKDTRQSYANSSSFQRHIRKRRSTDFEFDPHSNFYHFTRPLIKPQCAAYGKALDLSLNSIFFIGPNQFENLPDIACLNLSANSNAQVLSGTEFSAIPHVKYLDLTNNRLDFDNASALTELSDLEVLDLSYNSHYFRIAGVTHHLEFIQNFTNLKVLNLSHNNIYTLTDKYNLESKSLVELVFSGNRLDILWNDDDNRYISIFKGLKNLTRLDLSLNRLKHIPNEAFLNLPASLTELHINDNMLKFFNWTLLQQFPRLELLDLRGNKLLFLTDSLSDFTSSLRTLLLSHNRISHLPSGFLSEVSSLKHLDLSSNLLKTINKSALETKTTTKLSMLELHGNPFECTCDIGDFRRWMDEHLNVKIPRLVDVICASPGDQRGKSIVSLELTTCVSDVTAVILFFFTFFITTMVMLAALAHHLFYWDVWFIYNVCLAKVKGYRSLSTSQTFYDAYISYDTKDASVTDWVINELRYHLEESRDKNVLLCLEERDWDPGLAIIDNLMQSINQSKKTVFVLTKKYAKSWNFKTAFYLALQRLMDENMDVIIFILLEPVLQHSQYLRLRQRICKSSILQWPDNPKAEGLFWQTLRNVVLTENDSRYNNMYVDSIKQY
Description: (§1) TLR7/8/9 Inhibition Reporter Assays
(§2) HEK-Blue™-cells (Invivogen) overexpressing human TLR7, TLR8 or TLR9 receptors were used for screening inhibitors of these receptors using an inducible SLAP (secreted embryonic alkaline phosphatase) reporter gene under the control of the […] minimal promoter fused to five NF-κB and AP-1-binding sites. Briefly, cells are seeded into Greiner 384 well plates (15000 cells per well for TLR7, 20,000 for TLR8 and 25,000 for TLR9) and then treated with test compounds in DMSO to yield a final dose response concentration range of 0.05 nM-50 μM. After a 30 minute compound pre-treatment at room temperature, the cells are then stimulated with a TLR7 ligand (gardiquimod at a final concentration of 7.5 μM), TLR8 ligand (R848 at a final concentration of 15.9 μM) or TLR9 ligand (ODN2006 at a final concentration of 5 nM) to activate NF-κB and AP-1 which induce the production of SLAP. After a 22 hour incubation at 37° C., […], SLAP levels are determined with the addition of HEK-Blue™ Detection reagent (Invivogen), a cell culture medium that allows for detection of SLAP, according to manufacturer's specifications. The percent inhibition is determined as the […] in the HEK-Blue signal present in wells treated with agonist plus DMSO alone compared to wells treated with a known inhibitor.

[3] = molecular target: T3, human TLR7 (Homo sapiens, UniProt Q9NYK1); experiment: TLR7 inhibition reporter assay (HEK-Blue cells, secreted embryonic alkaline phosphatase reporter); conditions: HEK-Blue cells overexpressing human TLR7, stimulated with gardiquimod 7.5 μM; read-out: TLR 7 IC50
T3 construct: host or cells: HEK-Blue cells (HEK293-derived reporter line)
T3 sequence (Q9NYK1 27-1049): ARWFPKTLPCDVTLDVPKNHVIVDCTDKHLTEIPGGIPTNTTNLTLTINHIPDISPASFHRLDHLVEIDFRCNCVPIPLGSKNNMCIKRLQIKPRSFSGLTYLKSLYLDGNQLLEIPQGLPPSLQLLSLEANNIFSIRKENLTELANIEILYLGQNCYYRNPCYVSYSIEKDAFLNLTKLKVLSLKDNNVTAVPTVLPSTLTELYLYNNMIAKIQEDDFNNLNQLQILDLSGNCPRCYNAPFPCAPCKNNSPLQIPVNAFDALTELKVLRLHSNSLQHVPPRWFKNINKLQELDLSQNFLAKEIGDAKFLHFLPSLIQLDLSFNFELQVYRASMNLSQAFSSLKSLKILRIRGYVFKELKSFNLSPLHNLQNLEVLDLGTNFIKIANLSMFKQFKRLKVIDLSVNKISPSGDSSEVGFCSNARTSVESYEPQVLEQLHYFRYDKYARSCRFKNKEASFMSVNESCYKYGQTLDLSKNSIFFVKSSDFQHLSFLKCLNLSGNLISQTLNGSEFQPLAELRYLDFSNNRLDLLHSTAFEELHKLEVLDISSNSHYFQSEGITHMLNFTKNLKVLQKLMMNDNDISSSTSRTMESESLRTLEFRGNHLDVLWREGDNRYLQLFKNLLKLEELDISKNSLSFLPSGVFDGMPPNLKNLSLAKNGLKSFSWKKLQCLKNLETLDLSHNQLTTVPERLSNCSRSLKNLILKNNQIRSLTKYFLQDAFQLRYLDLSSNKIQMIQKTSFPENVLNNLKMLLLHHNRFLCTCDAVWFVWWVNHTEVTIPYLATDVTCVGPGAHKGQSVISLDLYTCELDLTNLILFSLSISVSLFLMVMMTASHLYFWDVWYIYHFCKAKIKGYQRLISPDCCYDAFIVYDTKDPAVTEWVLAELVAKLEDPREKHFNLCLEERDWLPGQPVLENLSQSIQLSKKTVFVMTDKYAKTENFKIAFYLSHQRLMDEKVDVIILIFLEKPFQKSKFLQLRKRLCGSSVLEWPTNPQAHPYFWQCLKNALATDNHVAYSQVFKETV
Description: as §1, §2

[4] = 22 hour incubation, reporter readout

Row | IC50 [1, 4] | IC50 [2] | IC50 [3] | IC50 ([1]; read-out: TLR 9 IC50) | SMILES
1 | 0.028 µM | > 50 µM | 2.5 µM | – | COc1ccc(-c2nc3c(C)cc(C4CCN(C5CC6CCC(C5)N6CC(C)C)CC4)cc3[nH]2)cc1OC (single isomer, unassigned) [Example 19, 2-(3,4-dimethoxyphenyl)-6-(1-(8-isobutyl-8-azabicyclo[3.2.1]octan-3-yl)piperidin-4-yl)-4-methyl-1H-benzo[d]imidazole]
2 | 0.069 µM | > 50 µM | 4.1 µM | – | COc1ccc(-c2nc3c(C)cc(C4CCN(C5CC6CCC(C5)N6CC(C)C)CC4)cc3[nH]2)cc1OC (single isomer, unassigned) [Example 20, 2-(3,4-dimethoxyphenyl)-6-(1-(8-isobutyl-8-azabicyclo[3.2.1]octan-3-yl)piperidin-4-yl)-4-methyl-1H-benzo[d]imidazole]
3 | 0.072 µM | > 25 µM | 18.6 µM | – | Cc1cc(C2CCN(C3CC4CCC(C3)N4C(C)C)CC2)cc2c1nc(-c1ccc(S(C)(=O)=O)cc1)n2C (single isomer, unassigned) [Example 84, 6-(1-(8-isopropyl-8-azabicyclo[3.2.1]octan-3-yl)piperidin-4-yl)-1,4-dimethyl-2-(4-(methylsulfonyl)phenyl)-1H-benzo[d]imidazole]
4 | 0.11 µM | > 25 µM | 5.7 µM | 0.106 µM | Cc1cc(C2CCN(C3CC4CCC(C3)N4C(C)C)CC2)cc2c1nc(-c1ccc(S(C)(=O)=O)cc1)n2C (single isomer, unassigned) [Example 85, 6-(1-(8-isopropyl-8-azabicyclo[3.2.1]octan-3-yl)piperidin-4-yl)-1,4-dimethyl-2-(4-(methylsulfonyl)phenyl)-1H-benzo[d]imidazole]
5 | 0.16 µM | > 50 µM | > 50 µM | 0.162 µM | CC(C)N1C2CCC1CC(N1CCC(c3ccc4c(nc(-c5ccc(S(C)(=O)=O)cc5)n4C)c3F)CC1)C2 (single isomer, unassigned) [Example 89, 4-fluoro-5-(1-(8-isopropyl-8-azabicyclo[3.2.1]octan-3-yl)piperidin-4-yl)-1-methyl-2-(4-(methylsulfonyl)phenyl)-1H-benzo[d]imidazole]
6 | 0.23 µM | > 50 µM | > 50 µM | 0.231 µM | CC(C)N1C2CCC1CC(N1CCC(c3ccc4c(nc(-c5ccc(S(C)(=O)=O)cc5)n4C)c3F)CC1)C2 (single isomer, unassigned) [Example 90, 4-fluoro-5-(1-(8-isopropyl-8-azabicyclo[3.2.1]octan-3-yl)piperidin-4-yl)-1-methyl-2-(4-(methylsulfonyl)phenyl)-1H-benzo[d]imidazole]
7 | 0.11 µM | > 50 µM | > 50 µM | 0.105 µM | CC(C)N1C2CCC1CC(N1CCC(c3cc(F)c4c(c3)nc(-c3ccc(S(C)(=O)=O)cc3)n4C)CC1)C2 (single isomer, unassigned) [Example 92, 7-fluoro-5-(1-(8-isopropyl-8-azabicyclo[3.2.1]octan-3-yl)piperidin-4-yl)-1-methyl-2-(4-(methylsulfonyl)phenyl)-1H-benzo[d]imidazole]
8 | 0.65 µM | > 50 µM | > 50 µM | – | CC(C)N1C2CCC1CC(N1CCC(c3cc(F)c4c(c3)nc(-c3ccc(S(C)(=O)=O)cc3)n4C)CC1)C2 (single isomer, unassigned) [Example 93, 7-fluoro-5-(1-(8-isopropyl-8-azabicyclo[3.2.1]octan-3-yl)piperidin-4-yl)-1-methyl-2-(4-(methylsulfonyl)phenyl)-1H-benzo[d]imidazole]
9 | 0.073 µM | > 50 µM | > 50 µM | – | CC(C)N1C2CCC1CC(N1CCC(c3ccc4nc(-c5ccc(S(C)(=O)=O)cc5)[nH]c4c3F)CC1)C2 (single isomer, unassigned) [Example 94, 7-fluoro-6-(1-(8-isopropyl-8-azabicyclo[3.2.1]octan-3-yl)piperidin-4-yl)-2-(4-(methylsulfonyl)phenyl)-1H-benzo[d]imidazole]
